The record followed here is patent US20130303507A1 (Novartis AG, priority 2011, published 2013).

This test addresses Cdk9/cyclinT1 (Homo sapiens, UniProt P50750). Briefly: Cdk9/cyclinT1 Alpha Screen protocol. The format is biochemical. Further details: Full length wild type Cdk9/cyclin T1 is purchased from Invitrogen; purchased Invitrogen PV4131. The following applies: individual determinations, read-out: CDK9_cyclinT1_AS2_IC50. The procedure:
Cdk9/cyclinT1 Alpha Screen Protocol
Full length wild type Cdk9/cyclin T1 is purchased from Invitrogen, cat#PV4131. […] The cdk7tide peptide substrate, biotin-[…] -OH, is a custom synthesis purchased from the Tufts University Core Facility. The final concentration of cdk7tide peptide substrate is 200 nM. […] Phospho-Rpb1 CTD (ser2/5) substrate antibody is purchased from Cell Signaling Technology. The final concentration of antibody is 0.67 ug/ml. The Alpha Screen Protein A detection kit containing donor and acceptor beads is purchased from PerkinElmer Life Sciences. The final concentration of both donor and acceptor beads is 15 ug/ml. Alpha Screen is used for detection. […] The biotinylated-cdk7tide peptide substrate is bound to the streptavidin coated donor bead. The antibody is bound to the protein A coated acceptor bead. The antibody will bind to the phosphorylated form of the biotinylated-cdk7tide peptide substrate, bringing the donor and acceptor beads into close proximity. Laser irradiation of the donor bead at 680 nm generates a flow of short-lived singlet oxygen molecules. When the donor and acceptor beads are in close proximity, the reactive oxygen generated by the irradiation of the donor beads initiates a luminescence/fluorescence cascade in the acceptor beads. This process leads to a highly amplified signal with output in the 530-620 nm range. Assays are carried out in 50 mM Hepes, pH=7.5, 10 mM MgCl2, 0.1% Bovine Serum Albumin, 0.01% Tween-20, 1 mM Dithiothreitol, 2.5% Dimethyl Sulfoxide. Stop and detection steps are combined using 50 mM Hepes, pH=7.5, 18 mM EDTA, 0.1% Bovine Serum Albumin, 0.01% Tween-20.

Molecules are shown by their SMILES. Where “and” joins values, the source holds several entries; their conditions need not be identical. Equal entries are not always repeated. Where two headings read alike, the source gives them in different places.

Sequence of Cdk9/cyclinT1 (P50750 whole entry): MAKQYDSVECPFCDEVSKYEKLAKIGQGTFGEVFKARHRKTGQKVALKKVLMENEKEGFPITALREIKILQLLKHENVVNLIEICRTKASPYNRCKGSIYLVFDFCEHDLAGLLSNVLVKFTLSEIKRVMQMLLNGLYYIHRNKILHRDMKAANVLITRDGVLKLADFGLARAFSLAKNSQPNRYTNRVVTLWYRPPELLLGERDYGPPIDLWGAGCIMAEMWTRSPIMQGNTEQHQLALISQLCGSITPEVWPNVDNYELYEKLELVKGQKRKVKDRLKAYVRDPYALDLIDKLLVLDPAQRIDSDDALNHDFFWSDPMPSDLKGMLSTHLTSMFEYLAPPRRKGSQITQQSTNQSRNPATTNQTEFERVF
Sequence of Cdk9/cyclinT1 (O60563 whole entry partner): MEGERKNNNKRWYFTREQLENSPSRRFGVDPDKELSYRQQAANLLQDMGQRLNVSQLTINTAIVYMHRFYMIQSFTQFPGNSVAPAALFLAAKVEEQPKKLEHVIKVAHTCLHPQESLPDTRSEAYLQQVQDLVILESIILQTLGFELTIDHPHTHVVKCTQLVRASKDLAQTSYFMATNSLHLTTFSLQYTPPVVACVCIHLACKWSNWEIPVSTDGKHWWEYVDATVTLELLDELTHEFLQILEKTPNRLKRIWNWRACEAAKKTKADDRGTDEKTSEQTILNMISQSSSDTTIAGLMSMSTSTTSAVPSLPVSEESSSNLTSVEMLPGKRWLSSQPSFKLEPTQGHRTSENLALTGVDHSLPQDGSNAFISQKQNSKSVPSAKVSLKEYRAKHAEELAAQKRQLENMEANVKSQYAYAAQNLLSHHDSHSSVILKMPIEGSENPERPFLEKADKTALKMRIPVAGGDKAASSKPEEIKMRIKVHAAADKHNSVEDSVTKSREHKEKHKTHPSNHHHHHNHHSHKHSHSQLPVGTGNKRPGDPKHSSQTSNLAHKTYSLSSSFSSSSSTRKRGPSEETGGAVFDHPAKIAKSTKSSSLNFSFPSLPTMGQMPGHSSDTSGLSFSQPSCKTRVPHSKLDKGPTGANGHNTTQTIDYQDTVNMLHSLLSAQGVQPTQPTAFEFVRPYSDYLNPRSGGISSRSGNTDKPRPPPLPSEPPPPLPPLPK

`COCCNC[C@H]1CC[C@H](Nc2cc(-c3cccc(NCC4(C#N)CCOCC4)n3)c(Cl)cn2)CC1` [Compound 540]: under “neutral species”, the IC50 is 0.596 nM and 0.536 nM. For `COCCN[C@H]1CC[C@H](Nc2cc(-c3cncc(OCC4(C#N)CCOCC4)n3)c(F)cn2)CC1` [Compound 559], the IC50 runs as follows: (TFA salt) 0.205 nM; (neutral species) 0.512 nM. On to `N#CC1(CNc2cccc(-c3cc(N[C@H]4CC[C@H](NCC(O)CF)CC4)ncc3Cl)n2)CCOCC1` (stereo partly drawn) [Compound 535], for which the IC50 (neutral species) is 0.398 nM. With `COC[C@H](C)N[C@H]1CC[C@H](Nc2cc(-c3cncc(OCC4(C#N)CCOCC4)n3)c(F)cn2)CC1` [Compound 589], the IC50 (neutral species) was found to be 1 nM.

On to `N#CC1(CNc2cccc(-c3cc(N[C@H]4CC[C@H](N5CCn6c(nnc6C(F)(F)F)C5)CC4)ncc3Cl)n2)CCOCC1` [Compound 528], for which, for the setting “neutral species”, the IC50 is 7.73 nM. Still for that read-out and setting: the value for `N#CC1(CNc2cccc(-c3cc(N[C@H]4CC[C@H](N[C@H]5CCCC[C@@H]5O)CC4)ncc3Cl)n2)CCOCC1` [Compound 588] was < 1 nM; that for `N#CC1(COc2cncc(-c3cc(N[C@H]4CC[C@H](NC[C@H](O)C(F)(F)F)CC4)ncc3Cl)n2)CCOCC1` [Compound 574] was 0.448 nM. Turning to `CC(C)(C)OCCN[C@H]1CC[C@H](Nc2cc(-c3cccc(NCC4(C#N)CCOCC4)n3)c(F)cn2)CC1` [Compound 527], the IC50 (neutral species) was 0.594 nM.

For the compound `N#CC1(CNc2cccc(-c3cc(N[C@H]4CC[C@H](NCCO)CC4)ncc3Cl)n2)CCOCC1` [Compound 572], for the setting “neutral species”, the IC50 was 0.301 nM. As to `N#CC1(CNc2cccc(-c3cc(N[C@H]4CC[C@H](NC[C@@H](O)CF)CC4)ncc3Cl)n2)CCOCC1` [Compound 544], where the note is “TFA salt”, the IC50 was 0.2 nM.

Regarding `COCC(C)NC[C@H]1CC[C@H](Nc2cc(-c3cccc(NCC4(C#N)CCOCC4)n3)c(Cl)cn2)CC1` (stereo partly drawn) [Compound 526], the IC50 (neutral species) stood at 1.19 nM. Turning to `N#CC1(CNc2cccc(-c3cc(N[C@H]4CC[C@@H](NC5CC(F)(F)C5)CC4)ncc3Cl)n2)CCOCC1` [Compound 564], the IC50 (neutral species) came out at 9.54 nM.

For the compound `[2H]C(C)(COC)N[C@H]1CC[C@H](Nc2cc(-c3cccc(NCC4(C#N)CCOCC4)n3)c(Cl)cn2)CC1` (stereo partly drawn) [Compound 594], the IC50 (neutral species) is < 1 nM. Take `COC[C@@H](C)NC[C@H]1CC[C@H](Nc2cc(-c3cccc(NCC4(C#N)CCOCC4)n3)c(Cl)cn2)CC1` [Compound 532]: the IC50 (TFA salt) amounted to 0.703 nM. With `COC[C@@H](C)N[C@H]1CC[C@H](Nc2cc(-c3cccc(NCC4(C#N)CCOCC4)n3)c(F)cn2)CC1` [Compound 519], the IC50 is 0.252 nM and 0.218 nM and 0.232 nM and 0.38 nM (TFA salt); 0.235 nM (neutral species). `N#CC1(COc2cncc(-c3cc(N[C@H]4CC[C@H](NCCF)CC4)ncc3Cl)n2)CCOCC1` [Compound 550]: the IC50 (neutral species) came to 0.429 nM. For the compound `C[C@@](O)(CN[C@H]1CC[C@H](Nc2cc(-c3cccc(NCC4(C#N)CCOCC4)n3)c(Cl)cn2)CC1)C(F)(F)F` [Compound 577], the IC50 (TFA salt) was 0.432 nM and 0.255 nM. Turning to `[2H]C([2H])([2H])OC[C@H](C)N[C@H]1CC[C@H](Nc2cc(-c3cncc(OCC4(C#N)CCOCC4)n3)c(Cl)cn2)CC1` [Compound 598], the IC50 (neutral species) is 1 nM. On the same count and under the same terms, for `COC(C)(C)CN[C@H]1CC[C@H](Nc2cc(-c3cccc(NCC4(C#N)CCOCC4)n3)c(Cl)cn2)CC1` [Compound 529] the value was 0.281 nM. As for `CO[C@H]1CCN([C@H]2CC[C@@H](Nc3cc(-c4cccc(NCC5(C#N)CCOCC5)n4)c(Cl)cn3)CC2)C1` [Compound 513], the IC50 turned out to be 26.1 nM (TFA salt) and 5.39 nM (neutral species).

For `C[C@H](O)[C@@H](C)N[C@H]1CC[C@H](Nc2cc(-c3cccc(NCC4(C#N)CCOCC4)n3)c(Cl)cn2)CC1` [Compound 543], the IC50 (TFA salt) worked out at 0.229 nM. Take `[2H][C@](C)(COC)N[C@H]1CC[C@H](Nc2cc(-c3cccc(NCC4(C#N)CCOCC4)n3)c(Cl)cn2)CC1` [Compound 597]: for the setting “neutral species”, the IC50 is < 1 nM. Still for that read-out and setting: the value for `[2H]C([2H])([2H])OC[C@@H](C)N[C@H]1CC[C@H](Nc2cc(-c3cncc(OCC4(C#N)CCOCC4)n3)c(Cl)cn2)CC1` [Compound 599] was < 1 nM; that for `COC[C@@H](C)N(O)[C@H]1CC[C@H](Nc2cc(-c3cncc(OCC4(C#N)CCOCC4)n3)c(Cl)cn2)CC1` [Compound 581] was 1 nM. Same read-out and setting: for `N#CC1(CNc2cccc(-c3cc(N[C@H]4CC[C@@H](N5CC6(COC6)C5)CC4)ncc3Cl)n2)CCOCC1` [Compound 547] the value was 6.15 nM. For the compound `N#CC1(CNc2cccc(-c3cc(N[C@H]4CC[C@H](CN5CCOCC5)CC4)ncc3Cl)n2)CCOCC1` [Compound 536], the IC50 came out at 1.87 nM (TFA salt) and 2.11 nM (neutral species).

Take `COCCN[C@H]1CC[C@H](Nc2cc(-c3ccc(F)c(NCC4(C)CCOCC4)n3)c(Cl)cn2)CC1` [Compound 565]: the IC50 (TFA salt) is 0.433 nM and 0.226 nM; the IC50 (neutral species) was 0.334 nM and 0.311 nM. Consider `COC[C@@H](C)N[C@H]1CC[C@H](Nc2cc(-c3cncc(OCC4(C#N)CCOCC4)n3)c(Cl)cn2)CC1` [Compound 552], for which the IC50 is, setting by setting: (TFA salt) 0.842 nM and 1.05 nM and 0.384 nM; (neutral species) 1.12 nM. For `C[C@@H](O)CN[C@H]1CC[C@H](Nc2cc(-c3cccc(NCC4(C#N)CCOCC4)n3)c(Cl)cn2)CC1` [Compound 585], the IC50 (neutral species) is < 1 nM. `C[C@H](CO)N[C@H]1CC[C@H](Nc2cc(-c3cccc(NCC4(C#N)CCOCC4)n3)c(Cl)cn2)CC1` [Compound 584]: the IC50 (neutral species) was < 1 nM.

Take `C[C@H](CO)N[C@H]1CC[C@H](Nc2cc(-c3cncc(OCC4(C#N)CCOCC4)n3)c(F)cn2)CC1` [Compound 592]: the IC50 (neutral species) was < 1 nM. As to `C[C@](O)(CN[C@H]1CC[C@H](Nc2cc(-c3cccc(NCC4(C#N)CCOCC4)n3)c(Cl)cn2)CC1)C(F)(F)F` [Compound 578], the IC50 (TFA salt) is 0.497 nM and 0.311 nM.

As to `N#CC1(CNc2cccc(-c3cc(N[C@H]4CC[C@@H](NCC5(O)CC5)CC4)ncc3Cl)n2)CCOCC1` [Compound 573], the IC50 (neutral species) came to 6.44 nM. For `C[C@H](CO)N[C@H]1CC[C@@H](Nc2cc(-c3cncc(OCC4(C#N)CCOCC4)n3)c(F)cn2)CC1` [Compound 593], under “neutral species”, the IC50 came to 25 nM. The same measure, in the same setting: for `N#CC1(CNc2cccc(-c3cc(N[C@H]4CC[C@H](N5CCC6(COC6)C5)CC4)ncc3Cl)n2)CCOCC1` [Compound 570] the value was 1.34 nM. On the same count and under the same terms, the value for `CC(C)(O)CN[C@H]1CC[C@H](Nc2cc(-c3cccc(NCC4(C#N)CCOCC4)n3)c(F)cn2)CC1` [Compound 522] was 0.421 nM; that for `N#CC1(COc2cncc(-c3cc(N[C@H]4CC[C@H](NC[C@@H](O)C(F)(F)F)CC4)ncc3Cl)n2)CCOCC1` [Compound 575] was 0.215 nM. On the same count and under the same terms, the value for `N#CC1(CN[C@H]2CC[C@H](Nc3cc(-c4cncc(OCC5(C#N)CCOCC5)n4)c(Cl)cn3)CC2)CC1` [Compound 567] was 0.754 nM and 0.279 nM. Turning to `COC[C@@H](C)N[C@H]1CC[C@H](Nc2cc(-c3cnc(Cl)c(NCC4(C#N)CCOCC4)n3)c(Cl)cn2)CC1` [Compound 512], the IC50 (neutral species) came out at 254 nM. Take `CC(C)(C)OCCN[C@H]1CC[C@H](Nc2cc(-c3cccc(NCC4(C#N)CCOCC4)n3)c(Cl)cn2)CC1` [Compound 515]: the IC50 reads like this: (TFA salt) 2.19 nM; (neutral species) 0.217 nM. With `COC[C@H](C)N[C@H]1CC[C@@H](Nc2cc(-c3cccc(NCC4(C#N)CCOCC4)n3)c(Cl)cn2)CC1` [Compound 602], the IC50 (neutral species) was 8.1 nM.

With `C[C@H](CO)N[C@H]1CC[C@H](Nc2cc(-c3cncc(OCC4(C#N)CCOCC4)n3)c(Cl)cn2)CC1` [Compound 590], the IC50 (neutral species) came to 5 nM. As to `CC(C)(C)OCCN(CCOC(C)(C)C)[C@H]1CC[C@H](Nc2cc(-c3cccc(NCC4(C#N)CCOCC4)n3)c(Cl)cn2)CC1` [Compound 518], under “TFA salt”, the IC50 was 8.57 nM. For the compound `COC[C@@H](C)N[C@H]1CC[C@H](Nc2cc(-c3cncc(OCC4(C#N)CCOCC4)n3)c(F)cn2)CC1` [Compound 553], the IC50 is 0.718 nM and 0.262 nM and 0.579 nM (TFA salt); 0.654 nM (neutral species). Regarding `N#CC1(COc2cncc(-c3cc(N[C@H]4CC[C@H](N5CCCOCC5)CC4)ncc3Cl)n2)CCOCC1` [Compound 548], the IC50 (neutral species) was found to be 1.01 nM. With `N#CC1(COc2cncc(-c3cc(N[C@H]4CC[C@H](NCCC(F)(F)F)CC4)ncc3Cl)n2)CCOCC1` [Compound 562], the IC50 (TFA salt) worked out at 0.321 nM and the IC50 (neutral species) was determined as 0.549 nM. Turning to `N#CC1(COc2cncc(-c3cc(N[C@H]4CC[C@@H](N5CCCOCC5)CC4)ncc3Cl)n2)CCOCC1` [Compound 549], where the note is “neutral species”, the IC50 stood at 55.6 nM. Take `C[C@@](O)(CN[C@H]1CC[C@H](Nc2cc(-c3cncc(OCC4(C#N)CCOCC4)n3)c(Cl)cn2)CC1)C(F)(F)F` [Compound 582]: the IC50 (neutral species) came to 1 nM. Regarding `COC[C@@H](C)N[C@H]1CC[C@H](Nc2cc(-c3cncc(OCC4(C#N)CC4)n3)c(F)cn2)CC1` [Compound 557], the IC50 (neutral species) amounted to 0.378 nM. With `C[C@H](CO)N[C@H]1CC[C@@H](Nc2cc(-c3cncc(OCC4(C#N)CCOCC4)n3)c(Cl)cn2)CC1` [Compound 591], for the setting “neutral species”, the IC50 is < 1 nM. As for `C[C@H](N[C@H]1CC[C@H](Nc2cc(-c3cccc(NCC4(C#N)CCOCC4)n3)c(Cl)cn2)CC1)[C@@H](C)O` [Compound 541], for the setting “TFA salt”, the IC50 was 0.303 nM.
